Patent publication US7456177B2, “Heteroaryl fused azapolycyclic compounds” (Pfizer Inc., priority 2003, dated 2008)

| SMILES | melting point |
| --- | --- |
| CN1CC2Cc3cccnc3C(C2)C1.Cl.Cl (centres unmarked) | 260 to 266 °C |
| Cn1nc2c3c(cccc3c1=O)C1CNCC2C1 (centres unmarked) | 320 to 322 °C |
